Test results published in publication PMC9421654, “Discovery of Substituted Di(pyridin-2-yl)-1,2,4-thiadiazol-5-amines as Novel Macrofilaricidal Compounds for the Treatment of Human Filarial Infections” (Journal of Medicinal Chemistry, 2022).
pEC50, pIC50: −log10 of the molar value. In brackets after ≈: the same amount, converted by molar mass. Like-named read-outs stand apart in the source and are kept apart here.

Assays:
[1] = system: O. gutturosa adult male worms; assay: O. gutturosa adult worm ex vivo assay, motility; type: cell-based, Onchocerca gutturosa; conditions: Onchocerca gutturosa; for pEC50: read-out: O. gutturosa EC50, adult worm motility, bound stated
How it was run: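 Adult male O. gutturosa from naturally infected cattle were cultured in supplemented MEM at 37 °C, 5% CO2, with four worms per concentration in serial 1-in-4 dilutions. Motility (0–10 scale) was scored every 24 h to 120 h. EC50 (geomean, n=2) for motility reduction came from 4PL fits, and viability was checked by MTT at 120 h.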

[2] = Kinetic solubility measurement; type: physicochemical; conditions: 10 mM DMSO stock solutions
How it was run: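 Human and rat liver microsomes (0.3 mg/mL) with 1 mM NADPH and 3µM substrate, 30 minutes at 37 °C in pH 7.4 phosphate/MgCl2, triplicate; LC-MS/MS percentage remaining. LogD: octanol/aqueous buffer (pH 7.4, 2.2, 6.8, 5), 24 h shaking at room temperature. Kinetic solubility: 200 µM, 2% DMSO, 24 h, filtered.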

THLE-2 cells = assay: THLE-2 cytotoxicity assay (ATP); conditions: for pIC50: Homo sapiens; for THLE (cytotoxicity) ATP LC50: THLE-2 cell line
How it was run: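 THLE-2 cells in supplemented LHC-8 medium were exposed for 24 or 72 h to final concentrations of 0.01–300 μM. Viability was read as ATP by CellTiter-Glo luminescence and normalized to DMSO vehicle. IC50 came from nonlinear regression of dose-response curves.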

[3] = read-out: O. gutturosa EC50 μM (SD), ex vivo adult worm motility reduction, SD in brackets
[4] = read-out: O. gutturosa EC50 (uM) motility inhibition, supplement, SD in brackets in the PDF table
[5] = THLE-2, 24 h, read-out: THLE IC50

| SMILES | EC50 [1, 3] | EC50 [1, 4] | solubility kinetic at 24 h [2] | pIC50 (THLE-2 cells; THLE-2, read-out: THLE IC50) | pIC50 (THLE-2 cells; [5]) | pEC50 [1] | THLE (cytotoxicity) ATP LC50 (THLE-2 cells) |
| --- | --- | --- | --- | --- | --- | --- | --- |
| CN(C)c1cccnc1Nc1nc(-c2ccc(OC3CC3)cn2)ns1 [Compound 32] | 0.74 µM | 0.743 µM | 8.92 µM (≈ 3.16 µg/mL) | 6.10 |  |  |  |
| Cc1cccnc1Nc1nc(-c2ccc(OC3CC3)cn2)ns1 [Compound 11, 3-(5-Cyclopropoxypyridin-2-yl)-N-(3-methylpyridin-2-yl)-1,2,4-thiadiazol-5-amine] | 0.11 µM | 0.106 µM | 1.84 µM (≈ 0.599 µg/mL) |  | < 3.70 |  |  |
| CC(C)Oc1ccc(-c2nsc(Nc3ncccc3C(C)C)n2)nc1 [Compound 25, 3-(5-Isopropoxy-2-pyridyl)-N-(3-isopropyl-2-pyridyl)-1,2,4-thiadiazol-5-amine] | 0.1 µM | 0.099 µM | 2.58 µM (≈ 0.917 µg/mL) | 5.49 |  |  |  |
| Cc1cccnc1Nc1nc(-c2ccc(OC3CCN(C4CC4)CC3)cn2)ns1 [Compound 19, 3-[5-[(1-Cyclopropyl-4-piperidyl)oxy]-2-pyridyl]-N-(3-methyl-2-pyridyl)-1,2,4-thiadiazol-5-amine] | 0.06 µM | 0.064 µM | 3.05 µM (≈ 1.25 µg/mL) |  | 3.92 |  |  |
| CC(C)c1ccnc(-c2nsc(Nc3ncccc3C(F)(F)F)n2)c1 [Compound 27] | 0.01 µM |  | 1.6 µM (≈ 0.585 µg/mL) |  |  | > 7.00 |  |
| CC(C)Oc1ccc(-c2nsc(Nc3ncccc3N(C)C(=O)C3CC3)n2)nc1 [Compound 50, N-(2-((3-(5-Isopropoxypyridin-2-yl)-1,2,4-thiadiazol-5-yl)amino)pyridin-3-yl)-N-methylcyclopropanecarboxamide] | 0.56 µM | 0.55 µM | 2.71 µM (≈ 1.11 µg/mL) | 5.13 |  |  |  |
| CC(C)Oc1ccc(-c2nsc(Nc3ncccc3N(C)C)n2)nc1 [Compound 31, N^2-(3-(5-Isopropoxypyridin-2-yl)-1,2,4-thiadiazol-5-yl)-N3,N3-dimethylpyridine-2,3-diamine] | 0.08 µM | 0.083 µM | 22.5 µM (≈ 8.02 µg/mL) |  | 4.44 |  | did not exhibit significant cellular cytotoxity |
| CNc1cccnc1Nc1nc(-c2ccc(OC(C)C)cn2)ns1 [Compound 30] | 0.22 µM | 0.219 µM | 1.9 µM (≈ 0.651 µg/mL) | 4.76 |  |  |  |
| Cc1ccnc(-c2nsc(Nc3ncccc3C(F)(F)F)n2)c1 [Compound 26, 3-(4-Methylpyridin-2-yl)-N-(3-(trifluoromethyl)pyridin-2-yl)-1,2,4-thiadiazol-5-amine] | 0.03 µM | 0.029 µM | 0.9 µM (≈ 0.304 µg/mL) |  | 4.18 |  |  |
| Cc1cccnc1Nc1nc(-c2ccc(OC(C)C)cn2)ns1 [Compound 10, 3-(5-Isopropoxypyridin-2-yl)-N-(3-methylpyridin-2-yl)-1,2,4-thiadiazol-5-amine] | 0.06 µM | 0.055 µM | 3.2 µM (≈ 1.05 µg/mL) |  | 4.42 | > 7.00 |  |
| CC(=O)N(C)c1cccnc1Nc1nc(-c2ccc(OC(C)C)cn2)ns1 [Compound 47, N-(2-((3-(5-Isopropoxypyridin-2-yl)-1,2,4-thiadiazol-5-yl)amino)pyridin-3-yl)-N-methylacetamide] | 1.07 µM |  | 109 µM (≈ 41.9 µg/mL) |  |  |  | did not exhibit significant cellular cytotoxity |
| CC(C)c1ccnc(-c2nsc(Nc3cc(C(F)(F)F)ccn3)n2)c1 [Compound 35, 3-(4-Isopropylpyridin-2-yl)-N-(4-(trifluoromethyl)pyridin-2-yl)-1,2,4-thiadiazol-5-amine] | 0.05 µM |  | < 1 µM | 5.64 |  |  |  |
| Cc1cccnc1Nc1nc(-c2ccc(OC3CC4(C3)CN(C3CC3)C4)cn2)ns1 [Compound 12, 3-[5-[(2-Cyclopropyl-2-azaspiro[3.3]heptan-6-yl)oxy]-2-pyridyl]-N-(3-methyl-2-pyridyl)-1,2,4-thiadiazol-5-mine] | 0.39 µM | 0.393 µM | 13.1 µM (≈ 5.5 µg/mL) | 5.28 |  |  |  |
